Experimental data taken from US12037644B2, “Use of FGFR mutant gene panels in identifying cancer patients that will be responsive to treatment with an FGFR inhibitor” (Janssen Pharmaceutica NV, priority 2014, dated 2024).

How the values were obtained:
[1] = test system: phosphorylation of FGFR, MAPK and S6 in FGFR fusion stably transfected RK3E cells; assay: Downstream target expression (immunoblotting); type: cell-based, rat; settings: 1 μM, in the presence of ligands, 1 hour; FIGS. 14A-14H
Procedure: For immunoblotting, whole cell lysates were collected in RIPA buffer (Thermo Scientific, Waltham, MA, USA) and sample protein concentration was assayed using BCA Protein Assay (Thermo Scientific). Equal amounts of protein (30 μg per lane) were loaded onto on 4-12% Bis-Tris gels (Invitrogen) before an SDS-page was performed. Proteins were transferred to nitrocellulose membranes and probed with antibodies against p-FGFR, total-FGFR2, p-MAPK, total-MAPK, p-S6, total S6, B-actin (Cell Signaling Technology, Danvers, MA, USA), and total-FGFR3 (Santa Cruz, Dallas, TX, USA). The membranes were blocked with Odyssey blocking buffer for 1 h at room temperature and incubated overnight at 4° C. in a primary antibody solution diluted in Odyssey blocking buffer (1:1000). After three washes in 0.1% Tween tris buffered saline (TBST), the membranes were probed with goat anti-mouse or donkey anti-rabbit IR-Dye […] or 800 cw labeled secondary antisera in Odyssey blocking buffer for 1 h at room temperature. Washes were repeated after secondary labeling and the membranes were imaged using a LiCor Odyssey scanner and the Odyssey 3.0 analytical software (LiCor, Lincoln, NE, USA).

RK3E-Transgene KRAS = assay: Drug response testing (Cell Titer-Glo proliferation), RK3E KRAS; settings: Rattus norvegicus, 72 h, read-out: Stimulated Proliferation (IC50)
Procedure: (§1) After 24 hours, cells were serum starved overnight, then re-fed with 0.5% FBS growth media. […] The Microtiter plates were then incubated for 72 hours and assayed for adenosine triphosphate (ATP; a marker of metabolically active cells) content using the Cell Titer-Glo® Luminescent Cell Viability assay (Promega Corp., Madison, WI, USA) following the manufacturer's instructions, with modifications. Briefly, cells were allowed to equilibrate to room temperature, at which time a 1:1 mixture of Cell Titer-Glo® reagent was added. Cells were then placed on an orbital shaker for 2 minutes and incubated for 10 minutes at room temperature to stabilize the luminescent signal. The luminescence was quantified and measurements were conducted using an Envision Multilabel plate reader (Perkin Elmer; Waltham, MA, USA).

RK3E-Transgene FGFR2 = assay: Drug response testing (Cell Titer-Glo proliferation), RK3E FGFR2; settings: Rattus norvegicus, 72 h, read-out: Stimulated Proliferation (IC50)
Procedure: (§2) RK3E (rat kidney epithelial cells) cells were purchased from ATCC (Manassas, VA, USA) and cultured in DMEM supplemented with FBS and antibiotics (Invitrogen, Grand Island, NY, USA).
as §1

RK3E-Transgene FGFR3 = assay: Drug response testing (Cell Titer-Glo proliferation), RK3E FGFR3; settings: Rattus norvegicus, 72 h, read-out: Stimulated Proliferation (IC50)
Procedure: as §1

[2] = test system: RK3E-Transgene AFF3 (FGFR fusion stably transfected RK3E cells); assay: Drug response testing (Cell Titer-Glo proliferation), RK3E FGFR2:AFF3; settings: Rattus norvegicus, 72 h, read-out: Stimulated Proliferation (IC50)
Procedure: as §2, §1

[3] = test system: RK3E-Transgene OFD1 (FGFR fusion stably transfected RK3E cells); assay: Drug response testing (Cell Titer-Glo proliferation), RK3E FGFR2:OFD1; settings: Rattus norvegicus, 72 h, read-out: Stimulated Proliferation (IC50)
Excerpt: (§3) RK3E (rat kidney epithelial cells) cells were purchased from ATCC (Manassas, VA, USA) and cultured in DMEM supplemented with FBS and antibiotics (Invitrogen, Grand Island, NY, USA). FGFR fusion gene constructs were designed and cloned into the pReceiver expression vector (Genecopoeia, Rockville, MD, USA), which contains an HA-tag. Clones were transfected into RK3E cells using the Amaxa Cell Line Nucleofector (Lonza, Basel, Switzerland) following the manufacturer's protocol. The stably transfected cells were selected in complete medium with 800 ug/ml of G418 (Invitrogen).
as §1

[4] = test system: RK3E-Transgene BICC1 (FGFR fusion stably transfected RK3E cells); assay: Drug response testing (Cell Titer-Glo proliferation), RK3E FGFR2:BICC1; settings: Rattus norvegicus, 72 h, read-out: Stimulated Proliferation (IC50)
Procedure: as §2, §1

[5] = test system: RK3E-Transgene CASP7 (FGFR fusion stably transfected RK3E cells); assay: Drug response testing (Cell Titer-Glo proliferation), RK3E FGFR2:CASP7; settings: Rattus norvegicus, 72 h, read-out: Stimulated Proliferation (IC50)
Excerpt: as §3, §1

[6] = test system: RK3E-Transgene CCDC6 (FGFR fusion stably transfected RK3E cells); assay: Drug response testing (Cell Titer-Glo proliferation), RK3E FGFR2:CCDC6; settings: Rattus norvegicus, 72 h, read-out: Stimulated Proliferation (IC50)
Excerpt: as §3, §1

[7] = test system: RK3E-Transgene BAIA2PL1 (FGFR fusion stably transfected RK3E cells); assay: Drug response testing (Cell Titer-Glo proliferation), RK3E FGFR3:BAIAP2L1; settings: Rattus norvegicus, 72 h, read-out: Stimulated Proliferation (IC50)
Procedure: as §1

[8] = test system: RK3E-Transgene TACC3-V1 (FGFR fusion stably transfected RK3E cells); assay: Drug response testing (Cell Titer-Glo proliferation), RK3E FGFR3:TACC3 v1; settings: Rattus norvegicus, 72 h, read-out: Stimulated Proliferation (IC50)
Procedure: as §2, §1

[9] = test system: RK3E-Transgene TACC3-V3 (FGFR fusion stably transfected RK3E cells); assay: Drug response testing (Cell Titer-Glo proliferation), RK3E FGFR3:TACC3 v3; settings: Rattus norvegicus, 72 h, read-out: Stimulated Proliferation (IC50)
Procedure: as §2, §1

[10] = test system: RK3E-Transgene Vector (empty vector control RK3E cells); assay: Drug response testing (Cell Titer-Glo proliferation), RK3E empty vector control; settings: Rattus norvegicus, 72 h, read-out: Stimulated Proliferation (IC50)
Procedure: as §1

[11] = test system: FGFR fusion stably transfected RK3E cells; assay: Drug response testing for FGFR-fusion overexpressing cell lines (overall statement); settings: for sensitivity of cells harboring the FGFR fusions to the FGFR inhibitor in vitro: empty vector control did not show sensitivity
Procedure: as §1

[12] = test system: advanced solid tumors (patients with FGFR fusion genes / FGFR aberrations); assay: Phase I First-In-Human study in patients with advanced solid tumor; type: in vivo; settings: FIG. 11

Structure (SMILES) | phosphorylation of FGFR and downstream targets MAPK and S6 (immunoblot) [1] | IC50 (RK3E-Transgene KRAS) | IC50 (RK3E-Transgene FGFR2) | IC50 (RK3E-Transgene FGFR3) | IC50 [2] | IC50 [3] | IC50 [4] | IC50 [5] | IC50 [6] | IC50 [7] | IC50 [8] | IC50 [9] | IC50 [10] | sensitivity of cells harboring the FGFR fusions to the FGFR inhibitor in vitro [11] | clinical responses (RECIST) ([12]; 9 mg once a day (QD), 12 mg QD and 12 mg 7d on/off, patients with the FGFR fusion genes) | maximal percentage reduction of sum of the diameters of targeted lesions from baseline (RECIST) ([12]; dose level >= 6 mg, daily or intermittent (7 days on - 7 days off), patients whose tumors harbor FGFR gene translocations and mutations) | sensitivity when compared to AZD4547 and NVP-BGJ398 ([11]; nanomolar concentration range)
CCN1CCN(c2ccc(Nc3cc(N(C)C(=O)Nc4c(Cl)c(OC)cc(OC)c4Cl)ncn3)cc2)CC1 [NVP-BGJ398, 3-(2,6-Dichloro-3,5-dimethoxy-phenyl)-1-{6-[4-(4-ethyl-piperazin-1-yl)-phenylamino]-pyrimid-4-yl}-1-methyl-urea] | inhibited phosphorylation of FGFR and downstream targets i.e. MAPK and S6 | 2140 nM | > 10 µM | 6.34 µM | 2.27 nM | 16 nM | 18.2 nM | 242 nM | 10.7 nM | 5.16 nM | 2.59 nM | 4.09 nM | > 10 µM | showed sensitivity | – | – | –
COc1cc(OC)cc(N(CCNC(C)C)c2ccc3ncc(-c4cnn(C)c4)nc3c2)c1 [JNJ-42756493, N-(3,5-dimethoxyphenyl)-N′-(1-methylethyl)-N-[3-(1-methyl-1H-pyrazol-4-yl)quinoxalin-6-yl]ethane-1,2-diamine] | inhibited phosphorylation of FGFR and downstream targets i.e. MAPK and S6 | – | – | – | – | – | – | – | – | – | – | – | – | – | Significant clinical responses | appear to be more sensitive | enhanced sensitivity
COc1cc(CCc2cc(NC(=O)c3ccc(N4C[C@@H](C)N[C@@H](C)C4)cc3)n[nH]2)cc(OC)c1 [AZD4547, N-[5-[2-(3,5-Dimethoxyphenyl)ethyl]-2H-pyrazol-3-yl]-4-(3,5-diemthylpiperazin-1-yl)benzamide] | inhibited phosphorylation of FGFR and downstream targets i.e. MAPK and S6 | 1480 nM | – | 5.69 µM | – | – | – | – | – | 11.5 nM | 16.5 nM | 8.66 nM | 8.01 µM | showed sensitivity | – | – | –
